Results as given in the CheMixHub viscosity set.

Experiment: xn = mol fraction of the nth substance listed

CS(C)=O + CCCO
Conditions | viscosity [mPa·s]
298.15 K, 101.3 kPa, x1 = 0.0789 | 1.75
298.15 K, 101.3 kPa, x1 = 0.1613 | 1.651
298.15 K, 101.3 kPa, x1 = 0.339 | 1.535
298.15 K, 101.3 kPa, x1 = 0.434 | 1.541
298.15 K, 101.3 kPa, x1 = 0.5363 | 1.562
298.15 K, 101.3 kPa, x1 = 0.6421 | 1.641
298.15 K, 101.3 kPa, x1 = 0.755 | 1.736
298.15 K, 101.3 kPa, x1 = 0.8737 | 1.845
298.15 K, 101.31 kPa, x1 = 0.1053 | 1.666
298.15 K, 101.31 kPa, x1 = 0.2078 | 1.55
298.15 K, 101.31 kPa, x1 = 0.413 | 1.496
298.15 K, 101.31 kPa, x1 = 0.5099 | 1.527
298.15 K, 101.31 kPa, x1 = 0.7025 | 1.664
298.15 K, 101.31 kPa, x1 = 0.7984 | 1.746
298.15 K, 101.31 kPa, x1 = 0.9011 | 1.871
303.15 K, 101 kPa, x1 = 0.5 | 1.425
303.15 K, 101.3 kPa, x1 = 0.0789 | 1.63
303.15 K, 101.3 kPa, x1 = 0.1613 | 1.54
303.15 K, 101.3 kPa, x1 = 0.2478 | 1.452
303.15 K, 101.3 kPa, x1 = 0.5363 | 1.436
303.15 K, 101.3 kPa, x1 = 0.6421 | 1.495
303.15 K, 101.3 kPa, x1 = 0.755 | 1.57
303.15 K, 101.3 kPa, x1 = 0.8737 | 1.676
308.15 K, 101.31 kPa, x1 = 0.2973 | 1.249
308.15 K, 101.31 kPa, x1 = 0.5099 | 1.29
308.15 K, 101.31 kPa, x1 = 0.5989 | 1.329
308.15 K, 101.31 kPa, x1 = 0.7984 | 1.465
308.15 K, 101.31 kPa, x1 = 0.9011 | 1.56
313.15 K, 101 kPa, x1 = 0.7998 | 1.335
318.15 K, 101.31 kPa, x1 = 0.1053 | 1.116
318.15 K, 101.31 kPa, x1 = 0.2078 | 1.064
318.15 K, 101.31 kPa, x1 = 0.2973 | 1.048
318.15 K, 101.31 kPa, x1 = 0.413 | 1.064
318.15 K, 101.31 kPa, x1 = 0.5099 | 1.093
318.15 K, 101.31 kPa, x1 = 0.5989 | 1.129
318.15 K, 101.31 kPa, x1 = 0.7025 | 1.189
318.15 K, 101.31 kPa, x1 = 0.7984 | 1.239
318.15 K, 101.31 kPa, x1 = 0.9011 | 1.314

CC1(C)OCC(CO)O1 (centres undefined) + OCC(O)CO
viscosity [mPa·s], 101 kPa
Conditions | x1 = 0.1 | x1 = 0.2015 | x1 = 0.3 | x1 = 0.4012 | x1 = 0.499 | x1 = 0.6002 | x1 = 0.7 | x1 = 0.801 | x1 = 0.9003
298.15 K | 803.5 | 702.6 | 600.8 | 502.2 | 407.7 | 319.4 | 243.3 | 163.1 | 84.15
308.15 K | 356.9 | 310 | 262 | 212.8 | 167.1 | 129.5 | 97.75 | 69.56 | 35.83
318.15 K | 175.4 | 150 | 123.5 | 98.86 | 75.9 | 54.95 | 43.91 | 31.63 | 16.65

CCCCCCCO + O
Conditions | viscosity [mPa·s]
298.15 K, 101 kPa, x2 = 0.28 | 5.5

CCCCCCCCn1cc[n+](C)c1.O=[N+]([O-])[O-] + CCCO
101 kPa
Conditions | viscosity [mPa·s]
293.15 K, x2 = 0.107 | 510.9
298.15 K, x2 = 0.258 | 191.5

CCCCC + CCCCCCCCCC
viscosity [mPa·s]
Conditions | x1 = 0.1031 | x1 = 0.2082 | x1 = 0.3062 | x1 = 0.408 | x1 = 0.5061 | x1 = 0.6029 | x1 = 0.7058 | x1 = 0.804 | x1 = 0.9008
297.95 K, 101 kPa | 0.7711 | 0.6992 | 0.6136 | 0.5536 | 0.4708 | 0.4339 | 0.3667 | 0.32 | 0.2645
298.15 K, 101.33 kPa | 0.7775 | 0.6969 | 0.6169 | 0.5449 | 0.4818 | 0.4285 | 0.3626 | 0.3143 | 0.2671
313.05 K, 101 kPa | 0.6585 | 0.5949 | 0.5183 | 0.4627 | 0.4237 | 0.3644 | 0.3189 | 0.2801 | 0.2396

CC(=O)O.NCCO + CCO
viscosity [mPa·s], 101 kPa
Conditions | x1 = 0.0193 | x2 = 0.7231 | x2 = 0.7996 | x2 = 0.8604 | x2 = 0.9136 | x2 = 0.9373 | x2 = 0.9595
293.15 K | 1.608 | 20.45 | 9.894 | 5.502 | 3.168 | 2.55 | 1.998
298.15 K | 1.458 | 16.96 | 8.454 | 4.8 | 2.85 | 2.28 | 1.806
303.15 K | 1.32 | 14.22 | 7.26 | 4.212 | 2.55 | 2.07 | 1.65

CCCCC + CCCCCCCC
Conditions | viscosity [mPa·s]
297.95 K, 101 kPa, x1 = 0.1048 | 0.4645
297.95 K, 101 kPa, x1 = 0.1992 | 0.4431
297.95 K, 101 kPa, x1 = 0.3044 | 0.4126
297.95 K, 101 kPa, x1 = 0.4015 | 0.3847
297.95 K, 101 kPa, x1 = 0.5066 | 0.3498
297.95 K, 101 kPa, x1 = 0.5998 | 0.3216
297.95 K, 101 kPa, x1 = 0.7095 | 0.2978
297.95 K, 101 kPa, x1 = 0.8097 | 0.2723
297.95 K, 101 kPa, x1 = 0.8946 | 0.2443
298.15 K, 101.33 kPa, x1 = 0.1059 | 0.4719
298.15 K, 101.33 kPa, x1 = 0.1973 | 0.4439
298.15 K, 101.33 kPa, x1 = 0.3019 | 0.4091
298.15 K, 101.33 kPa, x1 = 0.404 | 0.3806
298.15 K, 101.33 kPa, x1 = 0.5019 | 0.3545
298.15 K, 101.33 kPa, x1 = 0.6046 | 0.3228
298.15 K, 101.33 kPa, x1 = 0.7015 | 0.2963
298.15 K, 101.33 kPa, x1 = 0.8026 | 0.2702
298.15 K, 101.33 kPa, x1 = 0.9035 | 0.2454
313.05 K, 101 kPa, x1 = 0.1048 | 0.3939
313.05 K, 101 kPa, x1 = 0.1992 | 0.3894
313.05 K, 101 kPa, x1 = 0.3044 | 0.3676
313.05 K, 101 kPa, x1 = 0.4015 | 0.3504
313.05 K, 101 kPa, x1 = 0.5066 | 0.3205
313.05 K, 101 kPa, x1 = 0.5998 | 0.2816

CCN(CC)CCO + O=C1CCCCC1
viscosity [mPa·s], 101 kPa
Conditions | 298.15 K | 308.15 K | 318.15 K
x2 = 0.0501 | 3.267 | 2.46 | 1.885
x2 = 0.1004 | 3.133 | 2.336 | 1.766
x2 = 0.15 | 3.002 | 2.228 | 1.663
x2 = 0.2 | 2.878 | 2.126 | 1.564
x2 = 0.3002 | 2.662 | 1.939 | 1.417
x2 = 0.4 | 2.49 | 1.799 | 1.309
x2 = 0.5 | 2.344 | 1.703 | 1.24
x2 = 0.5999 | 2.234 | 1.647 | 1.224
x2 = 0.6503 | 2.191 | 1.639 | 1.229
x2 = 0.6995 | 2.159 | 1.639 | 1.249
x2 = 0.7997 | 2.127 | 1.663 | 1.306
x2 = 0.8997 | 2.121 | 1.717 | 1.389
x2 = 0.9497 | 2.133 | 1.747 | 1.443
